In brackets after ≈: the same amount, converted by molar mass.
Key:
physchem [1] = conditions: aqueous buffer, pH 1
Description: Solubility of compound in aqueous buffer at pH 1 at 25 degreeC by reversed phase-HPLC analysis

[2] = Prodrug conversion in Sprague-Dawley rat assessed as Cmax of 6-(cyclopropanecarboxamido)-4-((2-methoxy-3-(2-methyl-2H-tetrazol-5-yl)phenyl)amino)-N-(methyl-d3)nicotinamide metabolite at 5 mg/kg, po measured for 24 hrs by UPLC-MS/MS analysis; type: ADME, organism-based; conditions: in vivo
[3] = Tmax in Sprague-Dawley rat at 5 mg/kg, po measured for 24 hrs by UPLC-MS/MS analysis; type: ADME, organism-based; conditions: in vivo
[4] = Cmax in Sprague-Dawley rat at 5 mg/kg, po measured for 24 hrs by UPLC-MS/MS analysis; type: ADME, organism-based; conditions: in vivo
[5] = Tmax in Sprague-Dawley rat at 25 mg/kg, po measured for 24 hrs by UPLC-MS/MS analysis; type: ADME, organism-based; conditions: in vivo
[6] = Prodrug conversion in Sprague-Dawley rat assessed as AUC of 6-(cyclopropanecarboxamido)-4-((2-methoxy-3-(2-methyl-2H-tetrazol-5-yl)phenyl)amino)-N-(methyl-d3)nicotinamide metabolite at 25 mg/kg, po measured for 24 hrs by UPLC-MS/MS analysis; type: ADME, organism-based; conditions: in vivo
[7] = biological target: Intestinal-type alkaline phosphatase (Homo sapiens, UniProt P09923); test: (§1) Prodrug conversion in tris buffer at pH 7.4 assessed as intestinal recombinant human ALP-mediated 6-(cyclopropanecarboxamido)-4-((2-methoxy-3-(2-methyl-2H-tetrazol-5-yl)phenyl)amino)-N-(methyl-d3)nicotinamide metabolite formation by measuring half life of metabolite at 1 uM incubated for 30 mins by UPLC-MS/MS analysis; type: ADME; conditions: pH 7.4, 0.5 h
[8] = AUC in Sprague-Dawley rat at 5 mg/kg, po measured for 24 hrs by UPLC-MS/MS analysis; type: ADME, organism-based; conditions: in vivo
[9] = Prodrug conversion in Sprague-Dawley rat assessed as Tmax of 6-(cyclopropanecarboxamido)-4-((2-methoxy-3-(2-methyl-2H-tetrazol-5-yl)phenyl)amino)-N-(methyl-d3)nicotinamide metabolite at 5 mg/kg, po measured for 24 hrs by UPLC-MS/MS analysis; type: ADME, organism-based; conditions: in vivo
[10] = Solubility of compound in FeSSIF at pH 5 by reversed-phase UPLC analysis; type: physicochemical
[11] = Prodrug conversion in Pentagastrine-pretreated Sprague-Dawley rat assessed as Tmax of 6-(cyclopropanecarboxamido)-4-((2-methoxy-3-(2-methyl-2H-tetrazol-5-yl)phenyl)amino)-N-(methyl-d3)nicotinamide metabolite at 10 mg/kg, po measured for 24 hrs by UPLC-MS/MS analysis; type: ADME, organism-based; conditions: in vivo
[12] = Prodrug conversion in Sprague-Dawley rat assessed as AUC of 6-(cyclopropanecarboxamido)-4-((2-methoxy-3-(2-methyl-2H-tetrazol-5-yl)phenyl)amino)-N-(methyl-d3)nicotinamide metabolite at 150 mg/kg, po measured for 24 hrs by UPLC-MS/MS analysis; type: ADME, organism-based; conditions: in vivo
[13] = Prodrug conversion in Famotidine-pretreated Sprague-Dawley rat assessed as Cmax of 6-(cyclopropanecarboxamido)-4-((2-methoxy-3-(2-methyl-2H-tetrazol-5-yl)phenyl)amino)-N-(methyl-d3)nicotinamide metabolite at 10 mg/kg, po measured for 24 hrs by UPLC-MS/MS analysis; type: ADME, organism-based; conditions: in vivo
[14] = Cmax in Sprague-Dawley rat at 25 mg/kg, po measured for 24 hrs by UPLC-MS/MS analysis; type: ADME, organism-based; conditions: in vivo
[15] = Chemical stability of compound in phosphate buffer at pH 6.5 at 37 degreeC assessed as half life measured for 24 hrs by reversed phase-HPLC analysis; type: physicochemical
[16] = Prodrug conversion in Pentagastrine-pretreated Sprague-Dawley rat assessed as AUC (total) of 6-(cyclopropanecarboxamido)-4-((2-methoxy-3-(2-methyl-2H-tetrazol-5-yl)phenyl)amino)-N-(methyl-d3)nicotinamide metabolite at 10 mg/kg, po measured for 24 hrs by UPLC-MS/MS analysis; type: ADME, organism-based; conditions: in vivo
physchem [17] = conditions: aqueous buffer, pH 6.5
Description: Solubility of compound in aqueous buffer at pH 6.5 at 25 degreeC by reversed phase-HPLC analysis

[18] = Chemical stability of compound in acetate buffer at pH 4 at 37 degreeC assessed as half life measured for 24 hrs by reversed phase-HPLC analysis; type: physicochemical
[19] = biological target: Intestinal-type alkaline phosphatase 1 (Rattus norvegicus, UniProt P15693); test: as §1, with “rat” for “human”; type: ADME; conditions: pH 7.4, 0.5 h
physchem [20] = conditions: aqueous buffer, pH 4
Description: Solubility of compound in aqueous buffer at pH 4 at 25 degreeC by reversed phase-HPLC analysis

[21] = Chemical stability of compound in 0.1 M HCl at pH 1 at 37 degreeC assessed as half life measured for 24 hrs by reversed phase-HPLC analysis; type: physicochemical
[22] = Prodrug conversion in Sprague-Dawley rat assessed as Cmax of 6-(cyclopropanecarboxamido)-4-((2-methoxy-3-(2-methyl-2H-tetrazol-5-yl)phenyl)amino)-N-(methyl-d3)nicotinamide metabolite at 150 mg/kg, po measured for 24 hrs by UPLC-MS/MS analysis; type: ADME, organism-based; conditions: in vivo
[23] = AUC in Sprague-Dawley rat at 25 mg/kg, po measured for 24 hrs by UPLC-MS/MS analysis; type: ADME, organism-based; conditions: in vivo
[24] = Prodrug conversion in Sprague-Dawley rat assessed as AUC of 6-(cyclopropanecarboxamido)-4-((2-methoxy-3-(2-methyl-2H-tetrazol-5-yl)phenyl)amino)-N-(methyl-d3)nicotinamide metabolite at 5 mg/kg, po measured for 24 hrs by UPLC-MS/MS analysis; type: ADME, organism-based; conditions: in vivo
[25] = Prodrug conversion in Sprague-Dawley rat assessed as Tmax of 6-(cyclopropanecarboxamido)-4-((2-methoxy-3-(2-methyl-2H-tetrazol-5-yl)phenyl)amino)-N-(methyl-d3)nicotinamide metabolite at 25 mg/kg, po measured for 24 hrs by UPLC-MS/MS analysis; type: ADME, organism-based; conditions: in vivo
[26] = Prodrug conversion in Pentagastrine-pretreated Sprague-Dawley rat assessed as Cmax of 6-(cyclopropanecarboxamido)-4-((2-methoxy-3-(2-methyl-2H-tetrazol-5-yl)phenyl)amino)-N-(methyl-d3)nicotinamide metabolite at 10 mg/kg, po measured for 24 hrs by UPLC-MS/MS analysis; type: ADME, organism-based; conditions: in vivo
[27] = Solubility of compound in FaSSIF at pH 6.5 by reversed-phase UPLC analysis; type: physicochemical
[28] = Prodrug conversion in Sprague-Dawley rat assessed as Cmax of 6-(cyclopropanecarboxamido)-4-((2-methoxy-3-(2-methyl-2H-tetrazol-5-yl)phenyl)amino)-N-(methyl-d3)nicotinamide metabolite at 25 mg/kg, po measured for 24 hrs by UPLC-MS/MS analysis; type: ADME, organism-based; conditions: in vivo
[29] = Prodrug conversion in Famotidine-pretreated Sprague-Dawley rat assessed as Tmax of 6-(cyclopropanecarboxamido)-4-((2-methoxy-3-(2-methyl-2H-tetrazol-5-yl)phenyl)amino)-N-(methyl-d3)nicotinamide metabolite at 10 mg/kg, po measured for 24 hrs by UPLC-MS/MS analysis; type: ADME, organism-based; conditions: in vivo
[30] = Prodrug conversion in Famotidine-pretreated Sprague-Dawley rat assessed as AUC (total) of 6-(cyclopropanecarboxamido)-4-((2-methoxy-3-(2-methyl-2H-tetrazol-5-yl)phenyl)amino)-N-(methyl-d3)nicotinamide metabolite at 10 mg/kg, po measured for 24 hrs by UPLC-MS/MS analysis; type: ADME, organism-based; conditions: in vivo
[31] = Prodrug conversion in Sprague-Dawley rat assessed as Tmax of 6-(cyclopropanecarboxamido)-4-((2-methoxy-3-(2-methyl-2H-tetrazol-5-yl)phenyl)amino)-N-(methyl-d3)nicotinamide metabolite at 150 mg/kg, po measured for 24 hrs by UPLC-MS/MS analysis; type: ADME, organism-based; conditions: in vivo

Chain of Intestinal-type alkaline phosphatase 1 (P15693 whole entry): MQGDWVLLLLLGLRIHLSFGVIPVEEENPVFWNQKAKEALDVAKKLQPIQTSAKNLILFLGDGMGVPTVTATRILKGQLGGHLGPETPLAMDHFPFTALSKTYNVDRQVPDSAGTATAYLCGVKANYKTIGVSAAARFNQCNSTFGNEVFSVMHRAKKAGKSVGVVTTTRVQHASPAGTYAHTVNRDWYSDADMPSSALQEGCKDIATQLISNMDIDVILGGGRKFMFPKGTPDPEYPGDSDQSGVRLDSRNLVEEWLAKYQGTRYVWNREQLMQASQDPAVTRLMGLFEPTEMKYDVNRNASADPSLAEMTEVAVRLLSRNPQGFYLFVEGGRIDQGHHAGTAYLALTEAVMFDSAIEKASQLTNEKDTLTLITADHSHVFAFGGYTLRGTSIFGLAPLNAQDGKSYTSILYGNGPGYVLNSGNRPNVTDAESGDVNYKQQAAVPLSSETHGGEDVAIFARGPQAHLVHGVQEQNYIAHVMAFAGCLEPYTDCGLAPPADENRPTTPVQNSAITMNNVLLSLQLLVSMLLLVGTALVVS
Chain of Intestinal-type alkaline phosphatase (P09923 whole entry): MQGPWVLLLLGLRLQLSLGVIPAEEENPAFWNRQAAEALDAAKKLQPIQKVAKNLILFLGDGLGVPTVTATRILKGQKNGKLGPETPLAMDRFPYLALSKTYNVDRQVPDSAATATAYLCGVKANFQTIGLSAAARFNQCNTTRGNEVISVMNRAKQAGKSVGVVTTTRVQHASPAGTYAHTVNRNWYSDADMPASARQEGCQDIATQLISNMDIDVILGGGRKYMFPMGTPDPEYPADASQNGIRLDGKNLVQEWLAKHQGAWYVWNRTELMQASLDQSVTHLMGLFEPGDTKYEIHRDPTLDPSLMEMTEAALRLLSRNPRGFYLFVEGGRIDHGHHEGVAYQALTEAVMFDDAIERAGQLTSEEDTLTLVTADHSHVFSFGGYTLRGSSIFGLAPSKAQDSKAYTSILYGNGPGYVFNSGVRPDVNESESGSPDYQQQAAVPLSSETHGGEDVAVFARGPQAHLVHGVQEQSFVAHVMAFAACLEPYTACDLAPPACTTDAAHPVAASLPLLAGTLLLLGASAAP

solubility (physchem [1]): 0.016 mg/mL (≈ 29.9 µM) | Cmax [2]: 4.91 µM | Tmax [3]: Below_limit_of_detection | Cmax [4]: Below_limit_of_detection | Tmax [5]: Below_limit_of_detection | AUC [6]: 96.9 µM·h | t1/2 [7]: < 5 min | AUC [8]: Below_limit_of_detection | Tmax [9]: 0.5 h | solubility [10]: 0.1 mg/mL (≈ 187 µM) | Tmax [11]: 1 h | AUC [12]: 804.3 µM·h | Cmax [13]: 12.4 µM | Cmax [14]: Below_limit_of_detection | half-life [15]: 67.1 h | AUC [16]: 63 µM·h | solubility (physchem [17]): 0.66 mg/mL (≈ 1230 µM) | half-life [18]: 286 h | t1/2 [19]: < 5 min | solubility (physchem [20]): 0.027 mg/mL (≈ 50.4 µM) | half-life [21]: > 500 h | Cmax [22]: 58.2 µM | AUC [23]: Below_limit_of_detection | AUC [24]: 19.2 µM·h | Tmax [25]: 3 h | Cmax [26]: 11.4 µM | solubility [27]: 1.63 mg/mL (≈ 3040 µM) | Cmax [28]: 13 µM | Tmax [29]: 1.5 h | AUC [30]: 69 µM·h | Tmax [31]: 3 h
Compound: [2H]C([2H])([2H])NC(=O)c1cn(COP(=O)(O)O)/c(=N/C(=O)C2CC2)cc1Nc1cccc(-c2nnn(C)n2)c1OC
